Experimental findings from US9828374B2, “Substituted pyrazino[2,2-a]isoquinoline derivatives” (Hoffmann-La Roche Inc., priority 2014, dated 2017) are described below.

The target of one assay is mouse TAAR1 (Mus musculus (Mouse), UniProt Q923Y8). Nature of the assay: Radioligand binding assay on mouse TAAR1. The conditions noted are these: mouse TAAR1, HEK-293 membranes; first value of the mouse/rat pair. How it is done:
(§1) Construction of TAAR Expression Plasmids and Stably Transfected Cell Lines
(§2) For the construction of expression plasmids the coding sequences of human, rat and mouse TAAR 1 were amplified from genomic DNA essentially as described by Lindemann et al..
(§3) The Expand High Fidelity PCR System (Roche Diagnostics) was used with 1.5 mM Mg^2+ and purified PCR products were cloned into pCR2.1-TOPO cloning vector (Invitrogen) following the instructions of the manufacturer. PCR products were subcloned into the pIRESneo2 vector (BD Clontech, Palo Alto, Calif.), and expression vectors were sequence verified before introduction in cell lines.
(§4) HEK293 cells (ATCC # CRL-1573) were cultured essentially as described by Lindemann et al. (2005). For the generation of stably transfected cell lines HEK293 cells were transfected with the pIRESneo2 expression plasmids containing the TAAR coding sequences (described above) with Lipofectamine 2000 (Invitrogen) according to the instructions of the manufacturer, and 24 hrs post transfection the culture medium was supplemented with 1 mg/ml G418 (Sigma, Buchs, Switzerland). After a culture period of about 10 d clones were isolated, expanded and tested for responsiveness to trace amines (all compounds purchased from Sigma) with the cAMP Biotrak Enzyme immunoassay (EIA) System (Amersham) following the non-acetylation EIA procedure provided by the manufacturer.
Radioligand Binding Assay on Mouse TAAR1
(§5) Membrane Preparation and Radioligand Binding.
(§6) HEK-293 cells stably expressing mouse TAAR1 were maintained at 37° C. and 5% CO2 in DMEM high glucose medium, containing fetal calf serum (10%, heat inactivated for 30 min at 56° C.), penicillin/streptomycin (1%), and 375 μg/ml geneticin (Gibco). Cells were released from culture flasks using trypsin/EDTA, harvested, washed twice with ice-cold PBS (without Ca^2+ and Mg^2+), pelleted at 1,000 rpm for 5 min at 4° C., frozen and stored at −80° C. Frozen pellets were suspended in 20 ml HEPES-NaOH (20 mM, pH 7.4) containing 10 mM EDTA and homogenized with a Polytron (PT 6000, Kinematica) at 14,000 rpm for 20 s. The homogenate was centrifuged at 48,000×g for 30 min at 4° C. Subsequently, the supernatant was removed and discarded, and the pellet resuspended in 20 ml HEPES-NaOH (20 mM, pH 7.4) containing 0.1 mM EDTA using the Polytron (20 s at 14,000 rpm). This procedure was repeated and the final pellet resuspended in HEPES-NaOH containing 0.1 mM EDTA and homogenized using the Polytron. Typically, aliquots of 2 ml membrane portions were stored at −80° C. With each new membrane batch the dissociation constant (Kd) was determined via a saturation curve. […] Nonspecific binding was defined as the amount of ^3[H]-(S)-4-[(ethyl-phenyl-amino)-methyl]-4,5-dihydro-oxazol-2-ylamine bound in the presence of 10 μM unlabeled ligand. All compounds were tested at a broad range of concentrations (10 pM to 10 μM) in duplicates. […] The 96 deep well plates were incubated for 1 hr at 4° C. Incubations were terminated by rapid filtration through Unifilter-96 plates (Packard Instrument Company) and glass filters GF/C (Perkin Elmer) presoaked for 1 hr in polyethylenimine (0.3%) and washed 3 times with 1 ml of cold binding buffer. After addition of 45 μl of Microscint 40 (PerkinElmer) the Unifilter-96 plate was sealed and after 1 hr the radioactivity counted using a TopCount Microplate Scintillation Counter (Packard Instrument Company).

For another assay, the target named is rat TAAR1 (Rattus norvegicus (Rat), UniProt Q923Y9). Nature of the assay: Radioligand binding assay on rat TAAR1. The following applies: rat TAAR1, HEK-293 membranes; second value of the mouse/rat pair. How it is done: as §1, §2, §3, §4
rat TAAR1, sequence (Q923Y9 whole entry): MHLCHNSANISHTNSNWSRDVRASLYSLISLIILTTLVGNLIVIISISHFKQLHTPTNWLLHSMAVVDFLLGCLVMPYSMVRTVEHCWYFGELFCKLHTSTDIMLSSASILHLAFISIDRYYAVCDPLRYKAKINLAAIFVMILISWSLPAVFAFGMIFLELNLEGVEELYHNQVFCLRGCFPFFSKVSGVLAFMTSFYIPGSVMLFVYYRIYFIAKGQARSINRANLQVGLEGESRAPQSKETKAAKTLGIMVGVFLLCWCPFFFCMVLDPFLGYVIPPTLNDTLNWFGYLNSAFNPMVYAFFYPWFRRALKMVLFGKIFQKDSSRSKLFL
Radioligand Binding Assay on Rat TAAR1
as §5
as §6, with “rat” for “mouse”, “[H]-(S)-4-[(ethyl-phenyl-amino)-methyl]-4,5-dihydro-oxazol-2-ylamine” for “^3[H]-(S)-4-[(ethyl-phenyl-amino)-methyl]-4,5-dihydro-oxazol-2-ylamine”, “[…]” for “pM”

mouse TAAR1, sequence (Q923Y8 whole entry): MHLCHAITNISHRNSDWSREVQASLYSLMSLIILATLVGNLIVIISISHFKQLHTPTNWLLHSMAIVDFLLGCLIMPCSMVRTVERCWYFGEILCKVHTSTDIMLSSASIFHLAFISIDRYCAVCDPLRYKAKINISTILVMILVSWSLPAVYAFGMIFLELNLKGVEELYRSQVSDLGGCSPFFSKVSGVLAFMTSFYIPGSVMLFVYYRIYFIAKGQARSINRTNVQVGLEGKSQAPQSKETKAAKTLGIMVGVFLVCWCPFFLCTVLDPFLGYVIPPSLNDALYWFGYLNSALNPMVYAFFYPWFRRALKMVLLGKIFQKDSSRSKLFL

Regarding `COc1cc(Nc2ccc3c(c2)CCN2CCNC[C@@H]32)nc(C(F)(F)F)n1` [Example 18, (11bR)-N-[6-methoxy-2-(trifluoromethyl)pyrimidin-4-yl]-2,3,4,6,7,11b-hexahydro-1H-pyrazino[2,1-a]isoquinolin-9-amine], the Ki is 0.0439 µM on mouse TAAR1 and 0.0092 µM on rat TAAR1.

Turning to `O=C(Nc1ccc2c(c1)CCN1CCNC[C@H]21)c1cnc(C(F)(F)F)nc1` [Example 10, N-[(11bS)-2,3,4,6,7,11b-hexahydro-1H-pyrazino[2,1-a]isoquinolin-9-yl]-2-(trifluoromethyl)pyrimidine-5-carboxamide], the Ki was 0.189 µM at mouse TAAR1 and 0.191 µM at rat TAAR1.

With `c1cc2c(cc1C1CC1)CCN1CCNC[C@@H]21` [Example 29, (11bR)-9-cyclopropyl-2,3,4,6,7,11b-hexahydro-1H-pyrazino[2,1-a]isoquinoline], the Ki at mouse TAAR1 was found to be 1.81 µM; on rat TAAR1, 0.815 µM.

Take `COc1ccc(NC(=O)c2ccc3c(c2)CCN2CCNC[C@@H]32)cn1` [Example 45, (11bR)-N-(6-methoxy-3-pyridyl)-2,3,4,6,7,11b-hexahydro-1H-pyrazino[2,1-a]isoquinoline-9-carboxamide]: the Ki on mouse TAAR1 was 0.299 µM; at rat TAAR1, more than 1.5 µM.

`CC(C)c1cc(C(=O)Nc2ccc3c(c2)CCN2CCNC[C@@H]32)n(C)n1` [Example 39, (R)-N-(2,3,4,6,7,11b-hexahydro-1H-pyrazino[2,1-a]isoquinolin-9-yl)-3-isopropyl-1-methyl-1H-pyrazole-5-carboxamide]: the Ki at mouse TAAR1 amounted to 1.07 µM; at rat TAAR1, 0.869 µM.

Turning to `Cc1cc(C(=O)Nc2ccc3c(c2)CCN2CCNC[C@@H]32)nc(C(F)(F)F)n1` [Example 38, (R)-N-(2,3,4,6,7,11b-hexahydro-1H-pyrazino[2,1-a]isoquinolin-9-yl)-6-methyl-2-(trifluoromethyl)pyrimidine-4-carboxamide], the values for the Ki on mouse TAAR1 and on rat TAAR1 were 0.222 µM and 0.157 µM, respectively.

Take `c1ccc2c(c1)CCN1CCNC[C@@H]21` [Example 15, (11bR)-2,3,4,6,7,11b-hexahydro-1H-pyrazino[2,1-a]isoquinoline]: the inhibitory constant (Ki) at mouse TAAR1 amounted to 0.0605 µM; on rat TAAR1, 0.248 µM.

`CCc1n[nH]c(C(=O)Nc2ccc3c(c2)CCN2CCNC[C@@H]32)c1C` [Example 41, (R)-3-ethyl-N-(2,3,4,6,7,11b-hexahydro-1H-pyrazino[2,1-a]isoquinolin-9-yl)-4-methyl-1H-pyrazole-5-carboxamide]: the Ki at mouse TAAR1 is 0.145 µM; on rat TAAR1, 0.288 µM.

`Cc1cc(Nc2ccc3c(c2)CCN2CCNC[C@@H]32)nc(C(F)(F)F)n1` [Example 20, (11bR)-N-[6-methyl-2-(trifluoromethyl)pyrimidin-4-yl]-2,3,4,6,7,11b-hexahydro-1H-pyrazino[2,1-a]isoquinolin-9-amine]: the Ki at mouse TAAR1 came out at 0.0364 µM; on rat TAAR1 it was 0.0112 µM.

Turning to `O=C(Nc1ccc2c(c1F)CCN1CCNC[C@@H]21)c1ccnc(C(F)(F)F)c1` [Example 32, N-[(11bR)-8-fluoro-2,3,4,6,7,11b-hexahydro-1H-pyrazino[2,1-a]isoquinolin-9-yl]-2-(trifluoromethyl)pyridine-4-carboxamide], the figures for the Ki at mouse TAAR1 and on rat TAAR1 were 0.444 µM and 7.63 µM, respectively.

Regarding `FC(F)(F)c1cnc(Nc2ccc3c(c2)CCN2CCNC[C@@H]32)nc1` [Example 6, (11bR)-N-[5-(trifluoromethyl)pyrimidin-2-yl]-2,3,4,6,7,11b-hexahydro-1H-pyrazino[2,1-a]isoquinolin-9-amine], the figures for the Ki on mouse TAAR1 and at rat TAAR1 were 0.0374 µM and 0.0195 µM, respectively.

Consider `FC(F)(F)c1ccnc(Nc2ccc3c(c2)CCN2CCNC[C@@H]32)n1` [Example 24, (11bR)-N-[4-(trifluoromethyl)pyrimidin-2-yl]-2,3,4,6,7,11b-hexahydro-1H-pyrazino[2,1-a]isoquinolin-9-amine], for which the Ki at mouse TAAR1 was 0.0599 µM; at rat TAAR1 it was 0.0471 µM.

For the molecule `Cc1cc(Nc2ccc3c(c2)CCN2CCNC[C@@H]32)nc(C)n1` [Example 23, (11bR)-N-(2,6-dimethylpyrimidin-4-yl)-2,3,4,6,7,11b-hexahydro-1H-pyrazino[2,1-a]isoquinolin-9-amine], the results for the Ki at mouse TAAR1 and at rat TAAR1 were 0.165 µM and 0.457 µM, respectively.

`Nc1ccc2c(c1)CCN1CCNC[C@@H]21` [Example 47, (11bR)-2,3,4,6,7,11b-hexahydro-1H-pyrazino[2,1-a]isoquinolin-9-amine]: the inhibition constant (Ki) on mouse TAAR1 is 1.1 µM; on rat TAAR1, more than 1.5 µM.

In the case of `O=C(Nc1ccc(Cl)cc1)c1ccc2c(c1)CCN1CCNC[C@@H]21` [Example 44, (11bR)-N-(4-chlorophenyl)-2,3,4,6,7,11b-hexahydro-1H-pyrazino[2,1-a]isoquinoline-9-carboxamide], the inhibition constant Ki on mouse TAAR1 was found to be 0.0161 µM; at rat TAAR1, 0.274 µM.

Regarding `Fc1cc2c(cc1Nc1ncc(C(F)(F)F)cn1)CCN1CCNC[C@@H]21` [Example 17, (11bR)-10-fluoro-N-[5-(trifluoromethyl)pyrimidin-2-yl]-2,3,4,6,7,11b-hexahydro-1H-pyrazino[2,1-a]isoquinolin-9-amine], the figures for the Ki on mouse TAAR1 and on rat TAAR1 were 0.261 µM and 0.623 µM, respectively.

In the case of `O=C(Nc1cnc(Cl)nc1)c1ccc2c(c1)CCN1CCNC[C@@H]21` [Example 46, (11bR)-N-(2-chloropyrimidin-5-yl)-2,3,4,6,7,11b-hexahydro-1H-pyrazino[2,1-a]isoquinoline-9-carboxamide], the results for the Ki at mouse TAAR1 and at rat TAAR1 were 0.309 µM and more than 1.5 µM, respectively.

For the molecule `O=C(Nc1ccc(Cl)nc1)c1ccc2c(c1)CCN1CCNC[C@@H]21` [Example 42, (11bR)-N-(6-chloro-3-pyridyl)-2,3,4,6,7,11b-hexahydro-1H-pyrazino[2,1-a]isoquinoline-9-carboxamide], the Ki on mouse TAAR1 was 0.0395 µM; on rat TAAR1 it was 0.682 µM.

Consider `Cc1ccc2c(c1)CCN1CCNC[C@@H]21` [Example 28, (11bR)-9-methyl-2,3,4,6,7,11b-hexahydro-1H-pyrazino[2,1-a]isoquinoline], for which the results for the Ki on mouse TAAR1 and at rat TAAR1 were 0.29 µM and 0.421 µM, respectively.

Regarding `FC(F)(F)COc1cnc(Nc2ccc3c(c2)CCN2CCNC[C@@H]32)nc1` [Example 13, (R)-N-(5-(2,2,2-trifluoroethoxy)pyrimidin-2-yl)-2,3,4,6,7,11b-hexahydro-1H-pyrazino[2,1-a]isoquinolin-9-amine], the Ki at mouse TAAR1 was 0.0078 µM; at rat TAAR1, 0.0119 µM.
